The results in this text go back to patent publication US4857455A, “Method for the determination of peroxidase using fluorogenic substrates” (Syntex (U.S.A) Inc., priority 1982, dated 1989).

Common to all, as to assay type: biochemical, horseradish
In assay [1] the test system is horse radish peroxidase. Briefly: change in fluorescence of substrate with HRP and hydrogen peroxide over 60 seconds. The settings on record: HRP solution (6.6 ng/ml) 0 μl, substrate 800 μl, H2O2 100 μl, buffer 100 μl; 60 second interval, pH 8. As to the method: (§1) In the next assay, the fluorogenic precursor of Example I was employed. […] An assay solution was prepared comprising the […] compound of Example I, hydrogen peroxide, horse radish peroxidase, and buffer (0.1M phosphate, pH 8.0) and the change in fluorescence in the solution determined over a 60 second interval. The substrate solution which was added was 3.9 mg/100 ml concentration in buffer, the hydrogen peroxide was 9.×10^-4 M, the HRP solution was 6.6 ng/ml containing 0.5 mgBSA/ml and the buffer was 0.1M phosphate, pH 8. The following table indicates the results.

In assay [2] the target is T1, horse radish peroxidase (Armoracia rusticana, UniProt P00433).
T1 sequence (P00433 31-353): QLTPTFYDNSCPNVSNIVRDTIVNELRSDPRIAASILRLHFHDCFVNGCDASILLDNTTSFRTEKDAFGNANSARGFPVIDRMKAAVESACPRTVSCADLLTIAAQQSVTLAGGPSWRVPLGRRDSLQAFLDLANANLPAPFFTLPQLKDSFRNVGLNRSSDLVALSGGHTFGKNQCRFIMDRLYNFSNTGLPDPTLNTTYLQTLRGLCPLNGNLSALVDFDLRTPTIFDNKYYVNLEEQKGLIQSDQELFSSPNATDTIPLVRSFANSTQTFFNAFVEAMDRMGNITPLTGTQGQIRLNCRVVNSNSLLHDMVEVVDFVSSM
The description is as above. The settings on record: substrate 800 μl, H2O2 100 μl, 60 second interval, pH 8. As to the method: as §1

The target in a further assay is T2, HRP-antiPRP conjugate (Armoracia rusticana, UniProt P00433).
T2 construct: purchased Sigma
T2 sequence (P00433 31-338 limits assumed): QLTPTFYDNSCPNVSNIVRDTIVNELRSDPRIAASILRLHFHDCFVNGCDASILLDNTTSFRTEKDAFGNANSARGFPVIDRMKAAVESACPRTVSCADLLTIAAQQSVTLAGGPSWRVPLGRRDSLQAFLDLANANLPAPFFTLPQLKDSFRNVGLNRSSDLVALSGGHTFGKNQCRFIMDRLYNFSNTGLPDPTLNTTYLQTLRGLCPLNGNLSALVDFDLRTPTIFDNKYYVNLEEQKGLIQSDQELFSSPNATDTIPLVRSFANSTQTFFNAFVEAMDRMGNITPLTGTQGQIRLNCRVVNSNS
As to the kind of experiment: microtiter plate PRP immunoassay with HRP-antiPRP conjugate and fluorogenic substrate. The settings on record: 10 minute incubation at 37° C.; for Fluorescence with PRP: 50 ng/ml PRP; for Fluorescence without PRP: PBS buffer instead of PRP. As to the method: Microtiter plate wells were coated with a solution (250 μl/well) of an amine modified glucose oxidase (1 to 190 dilution, 7.6 mg/ml stock solution) and antibodies to polyribosephosphate (1:2000 dilution in 60 mM carbonate buffer, pH 9.6). After standing overnight, the wells were washed with PBS containing 0.05% Tween 20 (W/V).
A stock solution was prepared of the fluorogenic substrate of Example II. A 3.8 mg/10 ml DMF solution (1.22 mM) was diluted 1:10 with PBS buffer immediately before use. A substrate mixture was prepared containing 500 μl of the above stock solution, 694 μl of 1.8M glucose, 400 μl of a stock catalase solution and the volume brought to 2 ml with PBS buffer. The stock catalase solution (3.1-4 mg/ml) was prepared by dialysing catalase (C-100 Sigma) in PBS pH 7.2.
The following protocol was then employed for the assay. Into each microtiter well coated with amino glucose oxidase (see copending application serial No. 398,505, filed July 15, 1982) and antiPRP was added 100 μl of 50 ng/ml PRP or 100 μl of PBS buffer (pH 7.2) and the mixture incubated for one hour at room temperature. At the end of this time, 50 μl of HRP-antiPRP conjugate was added followed by another one hour incubation. At the end of this time, 100 μl of a substrate mixture was added, followed by a 10 minute incubation at 37° C. with shaking, after which time 200 μl of the incubation mixture was diluted with 1.8 ml, of 0.1M phosphate buffer (pH 8.0) and the fluorescence read.

A further assay addresses T3, HRP (Armoracia rusticana, UniProt P00433).
T3 sequence (P00433 31-353): T1 sequence (P00433 31-353)
Briefly: qualitative test as HRP substrate (generation of a fluorescent product with HRP and H2O2). The settings on record: with HRP and H2O2 in aqueous solution, result in words. The protocol:
The sample was filtered through a sintered glass filter to obtain a clear solution, the solvent evaporated and the residue dissolved in 5 ml DMF. The solution was then evaporated to dryness, dissolved in 1 ml. DMF, followed by a dilution with 4 ml buffer and an assay carried out as described previously employing 100 microliters of the substrate.

Setting [3] is: HRP-antiPRP dilution 0 (no conjugate).

Molecules are shown by their SMILES. Several values for one entry are separate records, joined by “and”; a condition that tells them apart may be missing. Equal values may be shown once.

As for `Nc1ccc(Oc2ccc3cc(C(=O)O)c(=O)oc3c2)cc1` [Example I, 3-carboxy-7-(4'-aminophenoxy)coumarin], the ΔF with horse radish peroxidase [1] was 6.6; on horse radish peroxidase [2] (HRP solution (6.6 ng/ml) 20 μl, buffer 80 μl) it was 11.0; on horse radish peroxidase [2] (HRP solution (6.6 ng/ml) 50 μl, buffer 50 μl), 16.2; on horse radish peroxidase [2] (HRP solution (6.6 ng/ml) 100 μl, buffer 0 μl) it was 29.7 and 30.4.
In the case of `Cc1cc(Oc2ccc3cc(C(=O)O)c(=O)oc3c2)ccc1N` [Example II, 3-carboxy-7-(3'-methyl-4'-aminophenoxy)coumarin], the “Fluorescence with PRP” value on HRP-antiPRP conjugate (setting [3]) is 2.2; on HRP-antiPRP conjugate (HRP-antiPRP dilution 1:80) it was 79.5; at HRP-antiPRP conjugate (HRP-antiPRP dilution 1:320) it was 31.8 and 29.6 and 32.5; on HRP-antiPRP conjugate (HRP-antiPRP dilution 1:1280), 13.8. The “Fluorescence without PRP” value is 2.4 on HRP-antiPRP conjugate (setting [3]); 67.1 on HRP-antiPRP conjugate (HRP-antiPRP dilution 1:80); 11.0 and 14.2 and 13.4 at HRP-antiPRP conjugate (HRP-antiPRP dilution 1:320); 5.2 on HRP-antiPRP conjugate (HRP-antiPRP dilution 1:1280).
For `O=C(O)CNc1ccc(Oc2ccc3cc(C(=O)O)c(=O)oc3c2)cc1` [Example III, 3-carboxy-7-(N-carboxymethyl 4'-aminophenoxy)coumarin], the “activity as HRP substrate” value on HRP is “useful as an HRP substrate”.
On the same count and under the same terms, then `Cc1cc(Oc2ccc3cc(C(=O)NCCS(=O)(=O)O)c(=O)oc3c2)ccc1N` [Example IV, taurine derivative of 3-carboxy-7-(3'-methyl-4'-aminophenoxy)coumarin], with “useful as a HRP substrate”; and `Cc1cc(Oc2ccc3cc(C(=O)N[C@H]4C(O)O[C@H](CO)[C@@H](O)[C@@H]4O)c(=O)oc3c2)ccc1N` (stereo partly shown) [Example V, glucosamine derivative of 3-carboxy-7-(3'-methyl-4'aminophenoxy)coumarin], with “active as an HRP substrate”.
Same read-out and setting: then `Cc1cc(Oc2ccc3cc(C(=O)O)c(=O)oc3c2)cc(Br)c1N` [Example VI, 3-carboxy-7-(3'-methyl-4'-amino-5'-bromophenoxy)coumarin], with “active HRP substrate”.
